Data published in article PMC11489133, “Obicetrapib exhibits favorable physiochemical and pharmacokinetic properties compared to previous cholesteryl ester transfer protein inhibitors: An integrated summary of results from non‐human primate studies and clinical trials” (Pharmacology Research & Perspectives, 2024).
Where two headings read alike, the source gives them in different places.

Legend:
[1] = ROSE Phase II trial, plasma concentrations of obicetrapib; assay type: in vivo, humans; conditions: for % Change in Plasma Level: Week 8 to Week 23, mean (SD); for concentration at 8 weeks / concentration at 23 weeks: both sexes, human, plasma, oral, read-out: Mean (SD) Plasma Level; for concentration at 8 weeks: Week 8 (EOT); for concentration at 23 weeks: Week 23, fifteen weeks after the end of treatment
Procedure: (§1) The PK parameters and the effect of food on the bioavailability of obicetrapib in humans have been examined in both Phase I[9] (TA‐8995‐09 CSR, NewAmsterdam Pharma) and Phase II trials.[10], [11], [12], [13] The trials were performed in accordance with the Declaration of Helsinki, Good Clinical Practice Guidelines, and applicable regulatory requirements. Approval was obtained from the relevant ethical review boards for each site. All volunteers provided written informed consent prior to participation. PK parameters were determined using WinNonlin software, version 4.1 or higher (Pharsight/Certara Corporation, USA). Concentrations of obicetrapib were summarized for each treatment group using descriptive statistics.
ROSE (NCT04753606) was a placebo‐controlled, double‐blind, randomized trial conducted to evaluate the efficacy of obicetrapib as an adjunct to high‐intensity statin therapy for reducing LDL‐C and ApoB levels.[11] A secondary endpoint of the trial included assessing plasma concentrations of obicetrapib during and after the end of treatment. […] One hundred twenty participants (mean age: 61.8 years; 55.8% male; 76.7% White; mean BMI: 31.1 kg/m^2) were enrolled at 17 clinical research sites in the United States and randomized in a 1:1:1 ratio to one of three treatment groups: (1) placebo; (2) 5 mg obicetrapib; or (3) 10 mg obicetrapib. The participants were instructed to take their assigned treatment orally with food once daily at approximately the same time each morning for the 8‐week treatment period. After randomization, participants returned to the clinical research site during Weeks 4 and 8 (end of treatment) for PK assessments. Additionally, participants completed follow‐up visits at four, eight, and 15 weeks after the end of treatment (Weeks 12, 16, and 23) for PK assessments. Of the 120 participants randomized in ROSE, 119 (99.2%) completed treatment; all 120 participants randomized were included in the modified Intent‐to‐Treat (mITT) analysis. The PK population (n = 80) included all randomized participants in the mITT population assigned to the two obicetrapib dose groups who had sufficient blood samples collected for valid estimation of PK parameters. Seventy‐seven (96.3%), 79 (98.8%), and 79 (98.8%) participants in the PK population for ROSE were included in the 4‐, 8‐, and 15‐week post‐end of treatment PK analyses, respectively (TA‐8995‐201 CSR, NewAmsterdam Pharma).

[2] = TULIP Phase II trial, plasma concentrations of obicetrapib; assay type: in vivo, humans; conditions: for % Change in Plasma Level: Week 20 vs EOT, mean (SD); for concentration at 12 weeks / concentration at 20 weeks: both sexes, human, plasma, oral, read-out: Mean (SD) Plasma Level; for concentration at 12 weeks: Week 12 (EOT)
Procedure: as §1
TULIP (NCT01970215) was a placebo‐controlled, double‐blind, randomized parallel‐group trial conducted to evaluate the effects of varying doses of obicetrapib as monotherapy and in combination with moderate‐intensity statin therapy on LDL‐C and HDL‐C levels.[10]
Additionally, the plasma concentrations of obicetrapib were evaluated during and after the treatment period. Eligible participants had mild dyslipidemia defined as LDL‐C levels between 96–174 mg/dL, HDL‐C levels between 31 and 70 mg/dL, and triglyceride levels <400 mg/dL after a washout for those on lipid‐modifying therapies. Three hundred and sixty‐four participants (mean age: 64.7 years; 81.6% male; 98.1% White; mean body mass index [BMI]: 26.0 kg/m^2) were enrolled at 17 clinical research sites in the Netherlands and Denmark and randomized in a […] ratio to one of nine treatment groups: (1) placebo; (2) 1 mg obicetrapib; (3) 2.5 mg obicetrapib; (4) 5 mg obicetrapib; (5) 10 mg obicetrapib; (6) 10 mg atorvastatin; (7) 10 mg obicetrapib plus 20 mg atorvastatin; (8) 10 mg rosuvastatin; or (9) 10 mg obicetrapib plus 10 mg rosuvastatin. The participants were instructed to take their assigned treatment orally with food once daily for the 12‐week treatment period. After randomization, participants returned to the clinical research site for PK assessments at Weeks 8 and 12 (end of treatment). Participants also completed follow‐up visits two and eight weeks after the end of treatment (Weeks 14 and 20) for final safety and PK assessments. Of the 364 participants randomized, 337 (92.6%) completed the trial and were included in the primary analysis. The PK population (n = 242) included all randomized participants who received at least one dose of obicetrapib and had at least one valid plasma drug concentration data assessment; 227 (93.8%) of the participants in the PK population were included in the 8‐week post‐end of treatment PK analysis (TA‐8995‐03 CSR, NewAmsterdam Pharma).

[3] = Obicetrapib 5 mg + high‐intensity statin
[4] = Obicetrapib 10 mg + high‐intensity statin
[5] = Obicetrapib 10 mg + atorvastatin 20 mg
[6] = Obicetrapib 10 mg + rosuvastatin 10 mg

Question: With `CCOC(=O)N1c2ccc(C(F)(F)F)cc2C(N(Cc2cc(C(F)(F)F)cc(C(F)(F)F)c2)c2ncc(OCCCC(=O)O)cn2)CC1CC` (centres unmarked) [Obicetrapib] as the molecule, how does the “% Change in Plasma Level” value [1, 3] read?
Answer: −98.5 (1.7) %

Question: What about the “% Change in Plasma Level” value ([1]; Obicetrapib 5 mg + high‐intensity statin, listed as obicetrapib) of the same molecule?
Answer: −98.5%

Question: What about the “% Change in Plasma Level” value [1, 4] of the same molecule?
Answer: −98.4 (1.9) %

Question: What about the concentration at 8 weeks [1, 3] of the same molecule?
Answer: 254 ng/mL

Question: And the concentration at 23 weeks [1, 3]?
Answer: 2.9 ng/mL

Question: And the concentration at 8 weeks [1, 4]?
Answer: 395 ng/mL

Question: And the concentration at 23 weeks [1, 4]?
Answer: 5.6 ng/mL

Question: And the “% Change in Plasma Level” value ([2]; Obicetrapib 5 mg)?
Answer: −97.8 (0.8) %

Question: And the “Mean (SD) Plasma Level” value ([2]; Obicetrapib 10 mg + atorvastatin 20 mg, Week 20, eight weeks after the end of treatment)?
Answer: 10.8 (5.9) ng/mL

Question: And the “% Change in Plasma Level” value [2, 5]?
Answer: −97.4 (1.0) %

Question: What about the “% Change in Plasma Level” value [2, 6] of the same molecule?
Answer: −97.3 (1.3) %

Question: What about the “% Change in Plasma Level” value ([2]; Obicetrapib 10 mg) of the same molecule?
Answer: −97.7 (0.7) %

Question: And the concentration at 12 weeks ([2]; 5 mg, Obicetrapib 5 mg once daily)?
Answer: 258 ng/mL

Question: And the concentration at 20 weeks ([2]; 5 mg, Obicetrapib 5 mg, Week 20, eight weeks after the end of treatment)?
Answer: 5.9 ng/mL

Question: What about the concentration at 12 weeks ([2]; 10 mg, Obicetrapib 10 mg once daily) of the same molecule?
Answer: 408 ng/mL

Question: What about the concentration at 20 weeks ([2]; 10 mg, Obicetrapib 10 mg, Week 20, eight weeks after the end of treatment) of the same molecule?
Answer: 9.8 ng/mL

Question: And the concentration at 12 weeks [2, 5]?
Answer: 404 ng/mL

Question: And the concentration at 12 weeks [2, 6]?
Answer: 402 ng/mL

Question: What about the concentration at 20 weeks ([2]; Obicetrapib 10 mg + rosuvastatin 10 mg, Week 20, eight weeks after the end of treatment) of the same molecule?
Answer: 11.3 ng/mL

Question: And the “decrease of plasma levels” value ([2]; eight weeks after the last dose (Week 20), all treatment groups)?
Answer: approximately 97%
